Measured values from US9012489B2, “Phenyl-3-aza-bicyclo[3.1.0]hex-3-yl-methanones and the use thereof as medicament” (Boehringer Ingelheim International GmbH, priority 2011, dated 2015).

Target: T1, GlyT1 transporter (Homo sapiens, UniProt P48067)
T1 construct: endogenously expressing the GlyT1 transporter; host or cells: SK-N-MC human neuroblastoma cells
T1 sequence (P48067 1-706): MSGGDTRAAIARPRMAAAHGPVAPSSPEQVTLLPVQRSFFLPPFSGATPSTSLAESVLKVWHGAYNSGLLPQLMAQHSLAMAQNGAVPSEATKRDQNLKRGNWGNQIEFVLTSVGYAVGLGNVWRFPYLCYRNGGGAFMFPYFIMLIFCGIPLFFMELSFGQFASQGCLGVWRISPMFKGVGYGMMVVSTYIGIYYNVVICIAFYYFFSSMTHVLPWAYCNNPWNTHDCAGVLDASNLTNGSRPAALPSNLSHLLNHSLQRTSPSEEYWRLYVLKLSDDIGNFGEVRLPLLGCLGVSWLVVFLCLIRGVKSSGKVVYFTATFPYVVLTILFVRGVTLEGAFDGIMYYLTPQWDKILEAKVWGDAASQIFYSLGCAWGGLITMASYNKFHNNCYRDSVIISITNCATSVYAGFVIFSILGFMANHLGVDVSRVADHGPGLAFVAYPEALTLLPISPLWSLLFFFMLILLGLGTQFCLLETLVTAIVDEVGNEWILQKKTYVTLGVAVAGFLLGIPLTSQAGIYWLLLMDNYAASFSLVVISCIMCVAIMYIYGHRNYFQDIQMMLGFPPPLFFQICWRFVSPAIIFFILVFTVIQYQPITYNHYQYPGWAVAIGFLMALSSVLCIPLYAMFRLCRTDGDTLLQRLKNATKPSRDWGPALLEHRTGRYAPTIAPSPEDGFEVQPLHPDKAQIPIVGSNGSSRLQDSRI
Experiment: GlyT1 assay: 3H-glycine uptake into SK-N-MC cells (Cytostar-T format)
Format: cell-based
Details: glycine uptake in human SK-N-MC cells endogenously expressing GlyT1; 500 nM glycine, 1% DMSO, signal recorded over 60 min
How it was run: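 Uptake slopes, measured over 60 min from the linear kinetic range, give IC50 from 8 compound concentrations, with 10 μM RG-1678 setting background. Substrate is 500 nM glycine (250 nM ³H, 250 nM unlabelled) in HBSS/5 mM alanine, 1% DMSO, after roughly 5-10 min compound preincubation. Cells: confluent SK-N-MC endogenously expressing human GlyT1.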

Going from C[C@@H](Oc1ccc(S(C)(=O)=O)cc1C(=O)N1CC2CC2(c2noc(C3(C(F)(F)F)CC3)n2)C1)C(F)(F)F (single isomer, unassigned) [Example 70, [5-Methanesulfonyl-2-(2,2,2-trifluoro-1-methyl-ethoxy)-phenyl]-{1-[5-(1-trifluoromethyl-cyclopropyl)-[1,2,4]oxadiazol-3-yl]-3-aza-bicyclo[3.1.0]hex-3-yl}-methanone] to C[C@@H](Oc1ccc(S(C)(=O)=O)cc1C(=O)N1CC2CC2(c2nnc(C3(C(F)(F)F)CC3)o2)C1)C(F)(F)F (single isomer, unassigned) [Example 149, [5-Methanesulfonyl-2-(2,2,2-trifluoro-1-methyl-ethoxy)-phenyl]-{1-[5-(1-trifluoromethyl-cyclopropyl)-[1,3,4]oxadiazol-2-yl]-3-aza-bicyclo[3.1.0]hex-3-yl}-methanone], the IC50 falls from 0.155 µM to 0.008 µM (19-fold). The second is the more potent here.

C[C@@H](Oc1ccc(S(C)(=O)=O)cc1C(=O)N1CC2CC2(c2noc(C(F)(F)F)n2)C1)C(F)(F)F (mixture of isomers) [Example 58, [5-Methanesulfonyl-2-(2,2,2-trifluoro-1-methyl-ethoxy)-phenyl]-[1-(5-trifluoromethyl-[1,2,4]oxadiazol-3-yl)-3-aza-bicyclo[3.1.0]hex-3-yl]-methanone] and CCS(=O)(=O)c1ccc(O[C@@H](C)C(F)(F)F)c(C(=O)N2CC3CC3(c3noc(C(F)(F)F)n3)C2)c1 (mixture of isomers) [Example 40, [5-Ethanesulfonyl-2-(2,2,2-trifluoro-1-methyl-ethoxy)-phenyl]-[1-(5-trifluoromethyl-[1,2,4]oxadiazol-3-yl)-3-aza-bicyclo[3.1.0]hex-3-yl]-methanone] are within 1.5-fold of each other in IC50: 0.017 µM for the first, 0.019 µM for the second.

Compared with C[C@@H](Oc1ccc(S(C)(=O)=O)cc1C(=O)N1CC2CC2(c2cc(C(F)(F)F)on2)C1)C(F)(F)F (mixture of isomers) [Example 49, [5-Methanesulfonyl-2-(2,2,2-trifluoro-1-methyl-ethoxy)-phenyl]-[1-(5-trifluoromethyl-isoxazol-3-yl)-3-aza-bicyclo[3.1.0]hex-3-yl]-methanone], CCS(=O)(=O)c1ccc(O[C@H](C)C(F)(F)F)c(C(=O)N2CC3CC3(c3cc(C(F)(F)F)on3)C2)c1 (single isomer, unassigned) [Example 107, [5-Ethanesulfonyl-2-(2,2,2-trifluoro-1-methyl-ethoxy)-phenyl]-[1-(5-trifluoromethyl-isoxazol-3-yl)-3-aza-bicyclo[3.1.0]hex-3-yl]-methanone] is 3.8-fold lower in IC50: 0.019 µM for the first, 0.005 µM for the second.

Compared with CS(=O)(=O)c1ccc(O[C@@H]2CCOC2)c(C(=O)N2CC3CC3(c3noc(C(F)(F)F)n3)C2)c1 (mixture of isomers) [Example 138, [5-Methanesulfonyl-2-(tetrahydro-furan-3-yloxy)-phenyl]-[1-(5-trifluoromethyl-[1,2,4]oxadiazol-3-yl)-3-aza-bicyclo[3.1.0]hex-3-yl]-methanone], CC(C)COc1ccc(S(C)(=O)=O)cc1C(=O)N1CC2CC2(c2noc(C(F)(F)F)n2)C1 (racemic) [Example 95, (2-Isobutoxy-5-methxnesulfonyl-phenyl)-[1-(5-trifluoromethyl-[1,2,4]oxadiazol-3-yl)-3-aza-bicyclo[3.10]hex-3-yl]-methanone] is 2-fold lower in IC50: 0.261 µM for the first, 0.131 µM for the second.

Compared with CCS(=O)(=O)c1ccc(O[C@@H](C)C(F)(F)F)c(C(=O)N2CC3CC3(c3cc(C(F)(F)F)on3)C2)c1 (single isomer, unassigned) [Example 104, [5-Ethanesulfonyl-2-(2,2,2-trifluoro-1-methyl-ethoxy)-phenyl]-[1-(5-trifluoromethyl-isoxazol-3-yl)-3-aza-bicyclo[3.1.0]hex-3-yl]-methanone], CCS(=O)(=O)c1ccc(O[C@H](C)C(F)(F)F)c(C(=O)N2CC3CC3(c3nccc(C(F)(F)F)n3)C2)c1 (single isomer, unassigned) [Example 78, [5-Ethanesulfonyl-2-(2,2,2-trifluoro-1-methyl-ethoxy)-phenyl]-[1-(4-trifluoromethyl-pyrimidin-2-yl)-3-aza-bicyclo[3.1.0]hex-3-yl]-methanone] is 42-fold lower in IC50: 0.292 µM for the first, 0.007 µM for the second. The second is the more potent here.

Going from C[C@@H](Oc1ccc(S(C)(=O)=O)cc1C(=O)N1CC2CC2(c2ncc(C(F)(F)F)o2)C1)C(F)(F)F (single isomer, unassigned) [Example 129, [5-Methanesulfonyl-2-(2,2,2-trifluoro-1-methyl-ethoxy)-phenyl]-[1-(5-trifluoromethyl-oxazol-2-yl)-3-aza-bicyclo[3.1.0]hex-3-yl]-methanone] to C[C@H](Oc1ccc(S(C)(=O)=O)cc1C(=O)N1CC2CC2(c2nc(C(F)(F)F)no2)C1)C(F)(F)F (single isomer, unassigned) [Example 84, [5-Methanesulfonyl-2-(2,2,2-trifluoro-1-methyl-ethoxy)-phenyl]-[1-(3-trifluoromethyl-[1,2,4]oxadiazol-5-yl)-3-aza-bicyclo[3.1.0]hex-3-yl]-methanone], the IC50 falls from 0.147 µM to 0.016 µM (9.2-fold).

C[C@H](Oc1ccc(S(C)(=O)=O)cc1C(=O)N1CC2CC2(c2noc(CC(F)(F)F)n2)C1)C(F)(F)F (mixture of isomers) [Example 61, [5-Methanesulfonyl-2-(2,2,2-trifluoro-1-methyl-ethoxy)-phenyl]-{1-[5-(2,2,2-trifluoro-ethyl)-[1,2,4]oxadiazol-3-yl]-3-aza-bicyclo[3.1.0]hex-3-yl}-methanone] and Cc1nc(C23CC2CN(C(=O)c2cc(S(C)(=O)=O)ccc2O[C@H](C)C(F)(F)F)C3)no1 (single isomer, unassigned) [Example 42, [5-Methanesulfonyl-2-(2,2,2-trifluoro-1-methyl-ethoxy)-phenyl]-[1-(5-methyl-[1,2,4]oxadiazol-3-yl)-3-aza-bicyclo[3.1.0]hex-3-yl]-methanone] are within 1.5-fold of each other in IC50: 0.008 µM for the first, 0.006 µM for the second.

First: CS(=O)(=O)c1ccc(O[C@@H]2CCOC2)c(C(=O)N2CC3CC3(c3noc(C(F)(F)F)n3)C2)c1 (single isomer, unassigned) [Example 139, [5-Methanesulfonyl-2-(tetrahydro-furan-3-yloxy)-phenyl]-[1-(5-trifluoromethyl-[1,2,4]oxadiazol-3-yl)-3-aza-bicyclo[3.1.0]hex-3-yl]-methanone]
Second: C[C@H](Oc1ccc(S(C)(=O)=O)cc1C(=O)N1CC2CC2(c2noc(C3CC3)n2)C1)C(F)(F)F (mixture of isomers) [Example 9, [1-(5-Cyclopropyl-[1,2,4]oxadiazol-3-yl)-3-aza-bicyclo[3.1.0]hex-3-yl]-[5-methanesulfonyl-2-(2,2,2-trifluoro-1-methyl-ethoxy)-phenyl]-methanone]
The IC50 of the first is 14-fold higher: 0.253 µM for the first, 0.018 µM for the second.

CS(=O)(=O)c1ccc(-n2ccc(C(F)(F)F)n2)c(C(=O)N2CC3CC3(c3noc(C(F)(F)F)n3)C2)c1 (racemic) [Example 141, [5-Methanesulfonyl-2-(3-trifluoromethyl-pyrazol-1-yl)-phenyl]-[1-(5-trifluoromethyl-[1,2,4]oxadiazol-3-yl)-3-aza-bicyclo[3.1.0]hex-3-yl]-methanone] and C[C@H](Oc1ccc(-c2ncco2)cc1C(=O)N1CC2CC2(c2noc(C(F)(F)F)n2)C1)C(F)(F)F (mixture of isomers) [Example 100, [5-Oxazol-2-yl-2-(2,2,2-trifluoro-1-methyl-ethoxy)-phenyl]-[1-(5-trifluoromethyl-[1,2,4]oxadiazol-3-yl)-3-aza-bicyclo[3.1.0]hex-3-yl]-methanone] are within 1.5-fold of each other in IC50: 0.764 µM for the first, 0.916 µM for the second.

Compared with C[C@H](Oc1ccc(S(C)(=O)=O)cc1C(=O)N1CC2CC2(c2nc(C3CC3)no2)C1)C(F)(F)F (single isomer, unassigned) [Example 144, [1-(3-Cyclopropyl-[1,2,4]oxadiazol-5-yl)-3-aza-bicyclo[3.1.0]hex-3-yl]-[5-methanesulfonyl-2-(2,2,2-trifluoro-1-methyl-ethoxy)-phenyl]-methanone], Cc1c(C23CC2CN(C(=O)c2cc(S(C)(=O)=O)ccc2O[C@@H](C)C(F)(F)F)C3)noc1C(F)(F)F (single isomer, unassigned) [Example 164] is 5.9-fold lower in IC50: 0.164 µM for the first, 0.028 µM for the second. The second is the more potent here.

Compared with CC(C)Oc1ccc(S(C)(=O)=O)cc1C(=O)N1CC2CC2(c2nc(C(F)(F)F)co2)C1 (racemic) [Example 110, (2-Isopropoxy-5-methanesulfonyl-phenyl)-[1-(4-trifluoromethyl-oxazol-2-yl)-3-aza-bicyclo[3.1.0]hex-3-yl]-methanone], CC1(C)Cc2cc(S(C)(=O)=O)cc(C(=O)N3CC4CC4(c4noc(C(F)(F)F)n4)C3)c2O1 (racemic) [Example 99, (5-Methanesulfonyl-2,2-dimethyl-2,3-dihydro-benzofuran-7-yl)-[1-(5-trifluoromethyl-[1,2,4]oxadiazol-3-yl)-3-aza-bicyclo[3.1.0]-3-yl]-methanone] is 3.9-fold lower in IC50: 1.13 µM for the first, 0.291 µM for the second.
